Assay results: patent publication US20100048693A1, “Treatment of COPD” (The Regents of the University of Colorado, A Body Corporate, priority 2006, published 2010)
“Also recorded” adds a separate entry of the source.

What was measured:
Assay type in all cases: cell-based, human
[1] = system: PGI2S gene expression; assay: Real time RT-PCR of PGI2S gene expression in HPMVEC; details: for PGI2S gene (mRNA) expression after aldehyde exposure: HPMVEC, 1 and 10 μM aldehyde, about 24 hours after exposure; for effect of pre-incubation on PGI2S gene expression in CSE-exposed cells: four hour pre-incubation (SOD mimetic 100 U/ml, catalase 100 U/ml, DPI 0.1 μM, L-NAME 1 mM), 1% CSE for 4 hours
Protocol: (§1) Human pulmonary microvascular endothelial cells (HPMVEC, passage 4-6) and EGM-2-MV medium (containing 5% FBS, hydrocortisone, human recombinant VEGF, recombinant human fibroblast growth factor-B, recombinant insulin-like growth factor-1, human recombinant epidermal growth factor, ascorbic acid, gentamycin and amphotericin-B) were purchased from Clonetics Corporation (Baltimore, Md., USA). Cells were grown to confluency at 37° C. in a humidified atmosphere of 21% O2, 5% CO2. N-acetyl-L-cysteine (NAC) and diphenyleneiodonium chloride (DPI) were obtained from Sigma-Aldrich (St. Louis, Mo., USA). N-nitro-l-arginine methyl ester (L-NAME) was obtained from Cayman Chemical (Ann Arbor, Mich.). Z-Asp2,6-dichlorobenzoylmethylketone (Caspase Family Inhibitor IV) was obtained from Alexis Biochemicals (San Diego, Calif., USA). Both an SOD mimetic and catalase were obtained from National Jewish Medical Center. Acrolein, an α,β-unsaturated aldehyde, and several […] aldehydes (acetaldehyde, crotonaldehyde, proprionaldehyde (i.e., propanal) were purchased from Sigma Aldrich (St. Louis, Mo., USA)
(§2) Cigarette smoke extract was prepared by a modification of a previously published method, e.g., Carp et al., Am. Rev. Respir. Dis., 1978, 118, 617-621. Briefly, one non-filtered Camel cigarette (R.J. Reynolds, Winston-Salem, N.C.) was passed through 10 mL of Phosphate-buffered saline (PBS) using a vacuum pump. This 100% CSE was adjusted to pH 7.4 and filtered through a […] pore filter (Fisher, Hampton, N.H., USA) and the CSE was diluted to the appropriate concentration and added to endothelial cells within 10 min of preparation.
(§3) Total RNA was extracted using the RNeasy Mini Kit (Qiagen, Valencia, Calif.), following the manufacturer's instructions. 1 μg of RNA was reverse-transcribed using random primer and MultiScribe RT (High-Capacity cDNA Archive Kit, Applied Biosystems, Foster City, Calif.). Assay-on-demand gene expression probe for PGI2S: Hs00168766, COX-1:Hs00377721, COX-2:Hs00153133, cPLA2:Hs00233352, and β-actin: Hs999999903 were obtained from Applied Biosystems (Foster City, Calif.) PCR reactions were performed in 20 μL volumes containing 9 μL of cDNA, 10 μL of TaqMan Master Mix (Applied Biosystems) and 1 μL of assay-on-demand primer and probe. Real-time PCR was conducted on the Applied Biosystems GeneAmp 5700 sequence Detection System and signal was detected by the GeneAmp 5700 SDS software (Applied Biosystems). All values were reported relative to β-Actin expression.

[2] = system: COX-2 gene expression; assay: Real time RT-PCR of COX-2 gene expression in HPMVEC; details: for effect of pre-incubation on COX-2 gene expression in CSE-exposed cells: four hour pre-incubation (SOD mimetic 100 U/ml, catalase 100 U/ml, DPI 0.1 μM, L-NAME 1 mM), 1% CSE for 4 hours; for COX-2 gene expression after aldehyde exposure: HPMVEC, 1 and 10 μM acrolein
Protocol: as §1, §2, §3

[3] = system: PGI2S protein expression; assay: Western blotting of PGI2S protein expression in HPMVEC; details: about 48 hours post exposure
Protocol: as §1
20 μg of protein was separated on NuPAGE Novex 4-12% Bis-Tris Gel (Invitrogen Carlsbad, Calif., USA) and transferred to a polyvinylidene fluoride (PVDF) membrane (Invitrogen, Carlsbad, Calif., USA). The membrane was blocked with 5% nonfat dry milk in PBS containing 0.05% Tween (PBST) for 1 hour. […]

[4] = system: HPMVEC; assay: Caspase 3/7 assay of apoptosis in HPMVEC exposed to CSE; details: HPMVEC pre-treated with Iloprost 1 μM and 10 μM for 30 minutes prior to CSE exposure
Protocol: Human pulmonary microvascular endothelial cells (HPMVEC, passage 4-6) and EGM-2-MV medium (containing 5% FBS, hydrocortisone, human recombinant VEGF, recombinant human fibroblast growth factor-B, recombinant insulin-like growth factor-1, human recombinant epidermal growth factor, ascorbic acid, gentamycin and amphotericin-B) were purchased from Clonetics Corporation (Baltimore, Md., USA). Cells were grown to confluency at 37° C. in a humidified atmosphere of 21% O2, 5% CO2. N-acetyl-L-cysteine (NAC) and diphenyleneiodonium chloride (DPI) were obtained from Sigma-Aldrich (St. Louis, Mo., USA). N-nitro-l-arginine methyl ester (L-NAME) was obtained from Cayman Chemical (Ann Arbor, Mich.). […]
Immunohistochemical staining on both PGI2S transgenic mice and wild type littermates was conducted using similar protocols to the above, however, cleaved caspase 3 antibody (Cell Signaling technology Danvers, Mass.) was used to assess apoptosis. In a blinded fashion, small, medium and large pulmonary arteries were scored for endothelial caspase staining. In-vitro, the rate of apoptosis in primary human microvascular endothelial cells was analyzed by the Vybrant Apoptosis Assay Kit from Molecular Probes Inc. (Eugene, Oreg., USA) according to the manufacturer's protocol. […] In addition, apoptosis of HPMVEC was assessed by Caspase 3/7 assay according to the protocol provided (Promega Madison, Wis.).

CC=O [acetaldehyde]
PGI2S gene (mRNA) expression after aldehyde exposure [1]: did not result in suppression

c1ccc2c(c1)[I+]c1ccccc1-2 [DPI, diphenyleneiodonium chloride]
effect of pre-incubation on PGI2S gene expression in CSE-exposed cells [1]: did not significantly affect | effect of pre-incubation on COX-2 gene expression in CSE-exposed cells [2]: did not significantly affect

CCC=O [propionaldehyde]
PGI2S gene (mRNA) expression after aldehyde exposure [1]: did not result in suppression | PGI2S gene (mRNA) expression after aldehyde exposure ([1]; listed as Propionaldehyde): statistically significant induction

C=CC=O [Acrolein]
PGI2S gene (mRNA) expression after aldehyde exposure [1]: reduction in PGI2S gene expression | COX-2 gene expression after aldehyde exposure [2]: trend toward induction | COX-2 gene expression after aldehyde exposure ([2]; listed as acrolein): No significant change | PGI2S protein expression after aldehyde exposure [3]: suppressed

CC(=O)N[C@@H](CS)C(=O)O [NAC, N-acetyl-L-cysteine]
prevention of down-regulation of PGI2S gene expression by 1% CSE ([1]; HPMVEC pre-incubated four hours with 1 mM NAC, then 1% CSE, RT-PCR at four hours and 24 hours): no significant prevention | effect on CSE mediated induction of COX-2 gene expression ([2]; HPMVEC pre-incubated four hours with 1 mM NAC, then 1% CSE, P<0.05): significantly reduce or prevent

C/C=C/C=O [crotonaldehyde]
PGI2S gene (mRNA) expression after aldehyde exposure [1]: did not result in suppression

catalase
effect of pre-incubation on PGI2S gene expression in CSE-exposed cells [1]: did not significantly affect | effect of pre-incubation on COX-2 gene expression in CSE-exposed cells [2]: did not significantly affect

CC#CCC(C)[C@H](O)/C=C/[C@@H]1[C@H]2C/C(=C/CCCC(=O)O)C[C@H]2C[C@H]1O (stereo partly drawn) [Iloprost]
endothelial apoptosis as measured by caspase 3/7 activity [4]: significant reduction; also recorded: at least partial protective anti-apoptotic effect
